For orientation: Ki means the dissociation constant of the complex between target and ligand, obtained from inhibition or displacement. Higher therefore signals a looser hold on the target. One may read the ED50 as the dose that gives a 50% effect, or the effect in half of the subjects. Lower therefore signals an effect at a small dose.

The values below come from ChEMBL document CHEMBL4000164, “(+)-and (-)-Phenazocine enantiomers: Evaluation of their dual opioid agonist/σ1 antagonist properties and antinociceptive effects” (Eur J Med Chem, 2017).

In assay [1] the target is T1, Kappa-type opioid receptor (Cavia porcellus, UniProt P41144). As to the kind of experiment: Displacement of [3H]-Ethylketazocine from kappa opioid receptor in guinea pig brain membranes after 40 mins. The format is cell membranes, Membrane. (In general: Displacement assays read how much labelled ligand stays bound in the presence of the test substance.)
T1 sequence (P41144 whole entry): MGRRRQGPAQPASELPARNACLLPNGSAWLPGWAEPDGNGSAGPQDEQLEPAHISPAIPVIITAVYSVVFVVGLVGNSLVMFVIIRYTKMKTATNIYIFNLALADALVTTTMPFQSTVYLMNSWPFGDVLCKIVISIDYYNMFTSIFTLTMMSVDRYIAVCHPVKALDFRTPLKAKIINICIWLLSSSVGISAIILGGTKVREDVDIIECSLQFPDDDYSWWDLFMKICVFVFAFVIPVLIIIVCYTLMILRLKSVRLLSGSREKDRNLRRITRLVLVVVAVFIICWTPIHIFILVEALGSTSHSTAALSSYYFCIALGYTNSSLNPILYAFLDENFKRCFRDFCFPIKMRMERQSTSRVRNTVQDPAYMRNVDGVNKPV
A short description of assay [2]: Displacement of [3H]-[D-Ala2,D-Leu5]enkephalin from delta opioid receptor in guinea pig brain membranes after 40 mins. The format is cell membranes, Cavia porcellus, Membrane.
The target of assay [3] is Sigma non-opioid intracellular receptor 1 (Mus musculus, UniProt O55242). As to the kind of experiment: Displacement of [3H]-(+)-pentazocin from sigma1 receptor in mouse brain P2 membranes after 240 mins by liquid scintillation counting method. It is filed as cell membranes.
Sigma non-opioid intracellular receptor 1, sequence (O55242 whole entry): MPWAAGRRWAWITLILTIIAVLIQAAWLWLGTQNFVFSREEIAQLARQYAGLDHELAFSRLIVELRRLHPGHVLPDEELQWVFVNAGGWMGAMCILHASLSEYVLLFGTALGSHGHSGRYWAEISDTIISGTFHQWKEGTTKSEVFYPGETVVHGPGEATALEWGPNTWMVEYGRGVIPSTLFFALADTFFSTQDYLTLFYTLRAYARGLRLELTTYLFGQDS
For assay [4], the target named is Mu-type opioid receptor (Cavia porcellus, UniProt P97266). As to the kind of experiment: Displacement of [3H]-[D-Ala2,MePhe4Gly-ol5]enkephalin from mu opioid receptor in guinea pig brain membranes after 40 mins. The format is cell membranes, Membrane.
Mu-type opioid receptor (Cavia porcellus, UniProt P97266), sequence (P97266 whole entry): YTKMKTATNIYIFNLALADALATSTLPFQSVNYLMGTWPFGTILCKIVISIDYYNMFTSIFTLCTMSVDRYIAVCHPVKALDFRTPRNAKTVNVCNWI
Assay [5] deals with T1, Kappa-type opioid receptor. As to the kind of experiment: Displacement of [3H]U69,593 from kappa opioid receptor in guinea pig brain membranes by liquid scintillation counter method. The format is cell membranes, Membrane.
Assay [6] deals with Mus musculus. As to the kind of experiment: Antinociceptive activity in CD-1 mouse mechanical stimulus-induced nociception model assessed as struggle response latency at 4 mg/kg, sc administered 30 mins prior to test in presence of centrally penetrant opioid antagonist Nx by paw pressure test. It is filed as functional, organism-based.
Assay [7] concerns the target Mu-type opioid receptor (Rattus norvegicus, UniProt P33535). As to the kind of experiment: Displacement of [3H] DAMGO from mu opioid receptor in Sprague-Dawley rat whole brain membranes after 2.5 hrs by liquid scintillation method. Set-up: species or system Membrane.
Assay [8] relates to Mus musculus. As to the kind of experiment: Antinociceptive activity in CD-1 mouse mechanical stimulus-induced nociception model assessed as struggle response latency at 4 mg/kg, sc administered 30 mins prior to test in presence of peripherally restricted opioid antagonist Nx-M by paw pressure test. It is filed as functional, organism-based.
Assay [9] deals with Delta-type opioid receptor (Rattus norvegicus, UniProt P33533). As to the kind of experiment: Displacement of [3H]DPDPE from delta opioid receptor in Sprague-Dawley rat brain membranes by liquid scintillation counter method. The format is cell membranes, Membrane.
Delta-type opioid receptor (Rattus norvegicus, UniProt P33533), sequence (P33533 whole entry): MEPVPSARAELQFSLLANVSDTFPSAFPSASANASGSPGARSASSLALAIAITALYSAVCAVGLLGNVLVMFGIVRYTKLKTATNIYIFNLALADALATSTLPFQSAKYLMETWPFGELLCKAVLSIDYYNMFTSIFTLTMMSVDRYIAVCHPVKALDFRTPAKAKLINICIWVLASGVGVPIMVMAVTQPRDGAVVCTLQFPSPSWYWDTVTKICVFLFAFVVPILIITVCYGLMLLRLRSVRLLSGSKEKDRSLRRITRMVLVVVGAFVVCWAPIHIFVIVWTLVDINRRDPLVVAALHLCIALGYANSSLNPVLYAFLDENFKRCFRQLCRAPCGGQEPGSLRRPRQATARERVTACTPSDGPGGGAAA
Assay [10] relates to Mus musculus. As to the kind of experiment: Antinociceptive activity in CD-1 mouse mechanical stimulus-induced nociception model assessed as struggle response latency at 2 to 8 mg/kg, sc administered 30 mins prior to test by paw pressure test. It is filed as functional, organism-based.
For assay [11], the system named is Mus musculus. As to the kind of experiment: Antinociceptive activity in CD-1 mouse mechanical stimulus-induced nociception model assessed as struggle response latency at 4 mg/kg, sc administered 30 mins prior to test in presence of sigma1 receptor agonist PRE-084 by paw pressure test. It is filed as functional, organism-based.
In assay [12] the target is Delta-type opioid receptor (Homo sapiens, UniProt P41143). As to the kind of experiment: Binding affinity to delta opioid receptor (unknown origin).
Delta-type opioid receptor (Homo sapiens, UniProt P41143), sequence (P41143 whole entry): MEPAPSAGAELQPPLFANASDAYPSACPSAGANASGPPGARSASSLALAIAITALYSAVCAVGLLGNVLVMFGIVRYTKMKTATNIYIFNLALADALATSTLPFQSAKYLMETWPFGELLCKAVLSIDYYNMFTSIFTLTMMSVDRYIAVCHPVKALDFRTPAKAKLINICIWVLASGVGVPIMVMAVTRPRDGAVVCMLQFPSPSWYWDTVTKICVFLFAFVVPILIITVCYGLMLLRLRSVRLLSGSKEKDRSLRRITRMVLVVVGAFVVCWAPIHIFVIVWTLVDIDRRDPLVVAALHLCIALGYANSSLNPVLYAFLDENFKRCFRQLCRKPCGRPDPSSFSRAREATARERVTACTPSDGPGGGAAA
In assay [13] the target is Kappa-type opioid receptor (Homo sapiens, UniProt P41145). As to the kind of experiment: Binding affinity to kappa opioid receptor (unknown origin).
Kappa-type opioid receptor (Homo sapiens, UniProt P41145), sequence (P41145 whole entry): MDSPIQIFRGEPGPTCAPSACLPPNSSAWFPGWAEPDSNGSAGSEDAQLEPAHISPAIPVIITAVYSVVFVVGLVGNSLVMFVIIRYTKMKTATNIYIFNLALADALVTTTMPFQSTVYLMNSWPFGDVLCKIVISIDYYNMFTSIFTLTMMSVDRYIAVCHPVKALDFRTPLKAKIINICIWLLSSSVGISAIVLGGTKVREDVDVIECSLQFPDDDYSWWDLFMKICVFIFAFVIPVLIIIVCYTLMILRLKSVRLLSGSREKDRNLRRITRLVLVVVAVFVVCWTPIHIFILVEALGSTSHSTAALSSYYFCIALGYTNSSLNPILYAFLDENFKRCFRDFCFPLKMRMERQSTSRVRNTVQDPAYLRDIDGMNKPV
In assay [14] the test system is Mus musculus. As to the kind of experiment: Antinociceptive activity in CD-1 mouse mechanical stimulus-induced nociception model assessed as struggle response latency at 8 mg/kg, sc administered 30 mins prior to test in presence of sigma1 receptor agonist PRE-084 by paw pressure test. The format is functional, organism-based.
In assay [15] the test system is Mus musculus. As to the kind of experiment: Analgesic activity in mouse administered subcutaneously by hot plate assay. Conditions: sc.
The test system of assay [16] is Mus musculus. As to the kind of experiment: Antinociceptive activity in CD-1 mouse mechanical stimulus-induced nociception model assessed as struggle response latency at 8 mg/kg, sc administered 30 mins prior to test in presence of peripherally restricted opioid antagonist Nx-M by paw pressure test. The format is functional, organism-based.
In assay [17] the test system is Mus musculus. As to the kind of experiment: Antinociceptive activity in CD-1 mouse mechanical stimulus-induced nociception model assessed as struggle response latency at 8 mg/kg, sc administered 30 mins prior to test in presence of centrally penetrant opioid antagonist Nx by paw pressure test. It is filed as functional, organism-based.
Assay [18] concerns Mus musculus. As to the kind of experiment: Antinociceptive activity in sc dosed CD-1 mouse mechanical stimulus-induced nociception model assessed as struggle response latency administered 30 mins prior to test by paw pressure test. It is filed as functional, organism-based.
In assay [19] the test system is Mus musculus. As to the kind of experiment: Antinociceptive activity in CD-1 mouse mechanical stimulus-induced nociception model assessed as struggle response latency time at 0.5 mg/kg, sc administered 30 mins prior to test in presence of centrally penetrant opioid antagonist Nx by paw pressure test. It is filed as functional, organism-based.
The subject of assay [20] is Mus musculus. As to the kind of experiment: Antinociceptive activity in CD-1 mouse mechanical stimulus-induced nociception model assessed as struggle response latency time at 0.5 mg/kg, sc administered 30 mins prior to test in presence of peripherally restricted opioid antagonist Nx-M by paw pressure test. The format is functional, organism-based.
For assay [21], the system named is Mus musculus. As to the kind of experiment: Antinociceptive activity in CD-1 mouse mechanical stimulus-induced nociception model assessed as struggle response latency at 0.25 mg/kg, sc administered 30 mins prior to test in presence of peripherally restricted opioid antagonist Nx-M by paw pressure test. It is filed as functional, organism-based.
Assay [22] relates to Mus musculus. As to the kind of experiment: Antinociceptive activity in CD-1 mouse mechanical stimulus-induced nociception model assessed as struggle response latency at 0.25 mg/kg, sc administered 30 mins prior to test in presence of sigma1 receptor agonist PRE-084 by paw pressure test. The format is functional, organism-based.
Assay [23] relates to Mus musculus. As to the kind of experiment: Antinociceptive activity in CD-1 mouse mechanical stimulus-induced nociception model assessed as struggle response latency at 0.25 mg/kg, sc administered 30 mins prior to test in presence of centrally penetrant opioid antagonist Nx by paw pressure test. It is filed as functional, organism-based.
Assay [24] has as its system Mus musculus. As to the kind of experiment: Antinociceptive activity in CD-1 mouse mechanical stimulus-induced nociception model assessed as struggle response latency at 0.125 to 0.5 mg/kg, sc administered 30 mins prior to test by paw pressure test. It is filed as functional, organism-based.
The test system of assay [25] is Mus musculus. As to the kind of experiment: Antinociceptive activity in CD-1 mouse mechanical stimulus-induced nociception model assessed as struggle response latency time at 0.5 mg/kg, sc administered 30 mins prior to test by paw pressure test. The format is functional.
The subject of assay [26] is Mus musculus. As to the kind of experiment: Antinociceptive activity in CD-1 mouse mechanical stimulus-induced nociception model assessed as struggle response latency time at 0.5 mg/kg, sc administered 30 mins prior to test in presence of sigma1 receptor agonist PRE-084 by paw pressure test. It is filed as functional, organism-based.

SMILES strings stand for the structures. Calls of active or inactive are those of the source. The calls are words filed in the database; no cut-off is given here.

Mu-type opioid receptor (Rattus norvegicus, UniProt P33535), sequence (P33535 whole entry): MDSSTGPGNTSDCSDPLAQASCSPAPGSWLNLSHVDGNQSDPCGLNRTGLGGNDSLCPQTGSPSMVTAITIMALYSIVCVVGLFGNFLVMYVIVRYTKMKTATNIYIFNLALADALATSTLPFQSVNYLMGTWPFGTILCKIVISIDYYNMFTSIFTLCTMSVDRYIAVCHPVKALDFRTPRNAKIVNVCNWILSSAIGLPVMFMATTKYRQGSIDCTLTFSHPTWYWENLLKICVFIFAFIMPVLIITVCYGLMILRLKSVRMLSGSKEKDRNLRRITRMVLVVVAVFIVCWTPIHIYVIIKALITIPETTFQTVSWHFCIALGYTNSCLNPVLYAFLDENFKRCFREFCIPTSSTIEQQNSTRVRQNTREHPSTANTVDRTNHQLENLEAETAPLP

For the compound `C=CC[N+]1(C)CC[C@]23c4c5ccc(O)c4O[C@H]2C(=O)CC[C@@]3(O)[C@H]1C5` (some centres not stated) [NALOXONE METHIODIDE], the Ki was 0.187 µM in assay [1], 0.291 µM in assay [2], greater than 1 µM in [3] and 0.0182 µM at Mu-type opioid receptor [4].
As to `C[C@@H]1[C@@H]2Cc3ccc(O)cc3[C@@]1(C)CCN2CCc1ccccc1`, the results for the Ki (in assay [5]; on Mu-type opioid receptor [7]; in assay [9]) were 0.175 µM, 0.0039 µM and 0.123 µM, respectively. The outcome with Mus musculus [6], in the assay on Mus musculus [8] and in the assay on Mus musculus [11] was inactive. In the assay on Mus musculus [10], the result was Active.
For `O=C(OCCN1CCOCC1)C1(c2ccccc2)CCCCC1`, the inhibitory constant (Ki) in assay [12] and in assay [13] was greater than 4 µM each time.
Turning to `CN1CC[C@]23c4c5ccc(O)c4O[C@H]2[C@@H](O)C=C[C@H]3[C@H]1C5` [MORPHINE], the result in the assay with Mus musculus [14] and in the assay with Mus musculus [16] was Active. The same compound gave an ED50 in the assay with Mus musculus [15] of 6.7 mg/kg. The result with Mus musculus [17] was inactive. Moreover, the Activity entry in the assay with Mus musculus [18] is “Dose-dependent effect”.
Consider `C[C@H]1[C@H]2Cc3ccc(O)cc3[C@]1(C)CCN2CCc1ccccc1`, for which the result in the assay with Mus musculus [19], with Mus musculus [20], in the assay with Mus musculus [21], in the assay on Mus musculus [22], in the assay on Mus musculus [23] and with Mus musculus [26] was inactive. On Mu-type opioid receptor [7], this compound yielded a Ki of 0.0617 µM. The outcome in the assay with Mus musculus [24] was Active. The Time with Mus musculus [25] came out at 20 s.
